The values below come from ChEMBL document CHEMBL5291721, “A preclinical secondary pharmacology resource illuminates target-adverse drug reaction associations of marketed drugs” (Nat Commun, 2023).

For experiment [1], the target named is T1, Muscarinic acetylcholine receptor M2 (Homo sapiens, UniProt P08172).
T1 sequence (P08172 whole entry): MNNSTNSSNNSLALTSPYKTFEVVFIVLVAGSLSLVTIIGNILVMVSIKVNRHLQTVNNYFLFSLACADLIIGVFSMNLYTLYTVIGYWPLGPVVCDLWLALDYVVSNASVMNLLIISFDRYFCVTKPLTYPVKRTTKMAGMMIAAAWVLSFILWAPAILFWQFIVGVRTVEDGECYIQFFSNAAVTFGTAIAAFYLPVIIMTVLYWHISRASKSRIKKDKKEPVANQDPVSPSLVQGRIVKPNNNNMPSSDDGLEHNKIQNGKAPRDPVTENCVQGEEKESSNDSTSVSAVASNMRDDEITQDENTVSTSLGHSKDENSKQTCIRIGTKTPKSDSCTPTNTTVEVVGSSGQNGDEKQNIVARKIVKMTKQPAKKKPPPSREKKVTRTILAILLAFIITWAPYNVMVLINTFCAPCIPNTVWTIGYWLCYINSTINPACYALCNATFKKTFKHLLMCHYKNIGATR
In kind it is functional, cell-based.

Experiment [2] deals with Sodium-dependent noradrenaline transporter (Homo sapiens, UniProt P23975).
Chain of Sodium-dependent noradrenaline transporter (P23975 whole entry): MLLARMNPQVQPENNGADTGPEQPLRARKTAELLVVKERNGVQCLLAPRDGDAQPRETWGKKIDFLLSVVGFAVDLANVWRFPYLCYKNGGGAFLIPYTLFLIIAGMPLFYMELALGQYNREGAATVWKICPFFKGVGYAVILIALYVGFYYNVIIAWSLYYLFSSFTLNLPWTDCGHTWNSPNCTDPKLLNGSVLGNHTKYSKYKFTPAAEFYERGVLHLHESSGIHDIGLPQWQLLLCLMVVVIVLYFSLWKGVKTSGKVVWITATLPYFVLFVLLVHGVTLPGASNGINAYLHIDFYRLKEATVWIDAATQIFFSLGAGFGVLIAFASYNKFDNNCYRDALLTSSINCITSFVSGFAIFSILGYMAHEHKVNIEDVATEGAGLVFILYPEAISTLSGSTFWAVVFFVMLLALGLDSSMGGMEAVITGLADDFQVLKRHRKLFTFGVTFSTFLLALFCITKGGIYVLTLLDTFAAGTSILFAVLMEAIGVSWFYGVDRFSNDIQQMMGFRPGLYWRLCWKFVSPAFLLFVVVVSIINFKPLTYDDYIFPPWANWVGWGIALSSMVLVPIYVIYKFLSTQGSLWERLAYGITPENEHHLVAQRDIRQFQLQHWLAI
Experiment [3] deals with 3',5'-cyclic-AMP phosphodiesterase 4D (Homo sapiens, UniProt Q08499). Type of experiment: functional.
Experiment [4] has as its target 5-hydroxytryptamine receptor 2B (Homo sapiens, UniProt P41595). Type of experiment: functional, cell-based.
Experiment [5] deals with T1, Muscarinic acetylcholine receptor M2. In kind it is functional, cell-based. This is another data set of the same source.
The target in experiment [6] is T2, 5-hydroxytryptamine receptor 2C (Homo sapiens, UniProt P28335).
T2 sequence (P28335 whole entry): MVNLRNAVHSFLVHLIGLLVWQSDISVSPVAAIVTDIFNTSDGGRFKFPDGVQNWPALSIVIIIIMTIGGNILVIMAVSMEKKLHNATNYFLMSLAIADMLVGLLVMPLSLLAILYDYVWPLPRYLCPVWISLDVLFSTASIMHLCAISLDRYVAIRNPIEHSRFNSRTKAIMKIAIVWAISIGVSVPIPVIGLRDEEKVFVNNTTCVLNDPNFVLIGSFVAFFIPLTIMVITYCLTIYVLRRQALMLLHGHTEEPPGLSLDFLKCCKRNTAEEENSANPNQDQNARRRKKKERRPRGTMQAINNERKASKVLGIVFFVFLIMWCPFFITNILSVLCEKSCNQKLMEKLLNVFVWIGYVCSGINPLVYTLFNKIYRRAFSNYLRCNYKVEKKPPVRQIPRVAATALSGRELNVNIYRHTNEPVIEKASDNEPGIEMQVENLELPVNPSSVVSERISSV

In experiment [7] the target is T3, Prostaglandin G/H synthase 1 (Rattus norvegicus, UniProt Q63921).
T3 sequence (Q63921 whole entry): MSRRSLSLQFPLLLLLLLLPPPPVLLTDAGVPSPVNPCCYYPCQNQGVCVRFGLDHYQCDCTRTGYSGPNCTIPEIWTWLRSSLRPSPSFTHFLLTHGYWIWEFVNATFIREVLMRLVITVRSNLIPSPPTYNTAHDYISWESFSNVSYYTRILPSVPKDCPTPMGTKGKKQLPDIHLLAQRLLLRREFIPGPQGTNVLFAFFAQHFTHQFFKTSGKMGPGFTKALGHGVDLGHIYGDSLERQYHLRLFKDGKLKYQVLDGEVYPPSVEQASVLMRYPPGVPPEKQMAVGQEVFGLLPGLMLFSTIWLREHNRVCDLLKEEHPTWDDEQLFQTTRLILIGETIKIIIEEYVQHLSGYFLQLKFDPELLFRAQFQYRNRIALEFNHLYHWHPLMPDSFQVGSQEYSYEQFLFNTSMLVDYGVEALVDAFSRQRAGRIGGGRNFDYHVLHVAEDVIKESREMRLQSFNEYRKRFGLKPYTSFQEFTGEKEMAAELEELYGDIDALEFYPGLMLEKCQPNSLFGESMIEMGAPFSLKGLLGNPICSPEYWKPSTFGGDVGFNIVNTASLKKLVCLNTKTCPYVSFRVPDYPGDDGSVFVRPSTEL
Type of experiment: functional.

In experiment [8] the target is Beta-2 adrenergic receptor (Homo sapiens, UniProt P07550).
Chain of Beta-2 adrenergic receptor (P07550 whole entry): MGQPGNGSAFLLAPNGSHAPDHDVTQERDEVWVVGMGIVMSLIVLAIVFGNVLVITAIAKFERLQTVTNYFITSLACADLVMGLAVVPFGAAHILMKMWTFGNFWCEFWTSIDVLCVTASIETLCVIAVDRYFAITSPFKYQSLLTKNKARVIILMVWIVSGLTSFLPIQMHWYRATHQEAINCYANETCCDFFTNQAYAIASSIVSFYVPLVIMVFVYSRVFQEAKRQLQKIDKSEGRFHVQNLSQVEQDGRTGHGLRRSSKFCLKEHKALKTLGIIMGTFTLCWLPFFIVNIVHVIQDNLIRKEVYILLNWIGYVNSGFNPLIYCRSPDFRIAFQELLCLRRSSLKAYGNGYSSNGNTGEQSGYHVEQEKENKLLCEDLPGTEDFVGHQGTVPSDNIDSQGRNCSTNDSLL
The target in experiment [9] is Voltage-dependent L-type calcium channel subunit alpha-1C (Rattus norvegicus, UniProt P22002). Type of experiment: functional.
Chain of Voltage-dependent L-type calcium channel subunit alpha-1C (P22002 whole entry): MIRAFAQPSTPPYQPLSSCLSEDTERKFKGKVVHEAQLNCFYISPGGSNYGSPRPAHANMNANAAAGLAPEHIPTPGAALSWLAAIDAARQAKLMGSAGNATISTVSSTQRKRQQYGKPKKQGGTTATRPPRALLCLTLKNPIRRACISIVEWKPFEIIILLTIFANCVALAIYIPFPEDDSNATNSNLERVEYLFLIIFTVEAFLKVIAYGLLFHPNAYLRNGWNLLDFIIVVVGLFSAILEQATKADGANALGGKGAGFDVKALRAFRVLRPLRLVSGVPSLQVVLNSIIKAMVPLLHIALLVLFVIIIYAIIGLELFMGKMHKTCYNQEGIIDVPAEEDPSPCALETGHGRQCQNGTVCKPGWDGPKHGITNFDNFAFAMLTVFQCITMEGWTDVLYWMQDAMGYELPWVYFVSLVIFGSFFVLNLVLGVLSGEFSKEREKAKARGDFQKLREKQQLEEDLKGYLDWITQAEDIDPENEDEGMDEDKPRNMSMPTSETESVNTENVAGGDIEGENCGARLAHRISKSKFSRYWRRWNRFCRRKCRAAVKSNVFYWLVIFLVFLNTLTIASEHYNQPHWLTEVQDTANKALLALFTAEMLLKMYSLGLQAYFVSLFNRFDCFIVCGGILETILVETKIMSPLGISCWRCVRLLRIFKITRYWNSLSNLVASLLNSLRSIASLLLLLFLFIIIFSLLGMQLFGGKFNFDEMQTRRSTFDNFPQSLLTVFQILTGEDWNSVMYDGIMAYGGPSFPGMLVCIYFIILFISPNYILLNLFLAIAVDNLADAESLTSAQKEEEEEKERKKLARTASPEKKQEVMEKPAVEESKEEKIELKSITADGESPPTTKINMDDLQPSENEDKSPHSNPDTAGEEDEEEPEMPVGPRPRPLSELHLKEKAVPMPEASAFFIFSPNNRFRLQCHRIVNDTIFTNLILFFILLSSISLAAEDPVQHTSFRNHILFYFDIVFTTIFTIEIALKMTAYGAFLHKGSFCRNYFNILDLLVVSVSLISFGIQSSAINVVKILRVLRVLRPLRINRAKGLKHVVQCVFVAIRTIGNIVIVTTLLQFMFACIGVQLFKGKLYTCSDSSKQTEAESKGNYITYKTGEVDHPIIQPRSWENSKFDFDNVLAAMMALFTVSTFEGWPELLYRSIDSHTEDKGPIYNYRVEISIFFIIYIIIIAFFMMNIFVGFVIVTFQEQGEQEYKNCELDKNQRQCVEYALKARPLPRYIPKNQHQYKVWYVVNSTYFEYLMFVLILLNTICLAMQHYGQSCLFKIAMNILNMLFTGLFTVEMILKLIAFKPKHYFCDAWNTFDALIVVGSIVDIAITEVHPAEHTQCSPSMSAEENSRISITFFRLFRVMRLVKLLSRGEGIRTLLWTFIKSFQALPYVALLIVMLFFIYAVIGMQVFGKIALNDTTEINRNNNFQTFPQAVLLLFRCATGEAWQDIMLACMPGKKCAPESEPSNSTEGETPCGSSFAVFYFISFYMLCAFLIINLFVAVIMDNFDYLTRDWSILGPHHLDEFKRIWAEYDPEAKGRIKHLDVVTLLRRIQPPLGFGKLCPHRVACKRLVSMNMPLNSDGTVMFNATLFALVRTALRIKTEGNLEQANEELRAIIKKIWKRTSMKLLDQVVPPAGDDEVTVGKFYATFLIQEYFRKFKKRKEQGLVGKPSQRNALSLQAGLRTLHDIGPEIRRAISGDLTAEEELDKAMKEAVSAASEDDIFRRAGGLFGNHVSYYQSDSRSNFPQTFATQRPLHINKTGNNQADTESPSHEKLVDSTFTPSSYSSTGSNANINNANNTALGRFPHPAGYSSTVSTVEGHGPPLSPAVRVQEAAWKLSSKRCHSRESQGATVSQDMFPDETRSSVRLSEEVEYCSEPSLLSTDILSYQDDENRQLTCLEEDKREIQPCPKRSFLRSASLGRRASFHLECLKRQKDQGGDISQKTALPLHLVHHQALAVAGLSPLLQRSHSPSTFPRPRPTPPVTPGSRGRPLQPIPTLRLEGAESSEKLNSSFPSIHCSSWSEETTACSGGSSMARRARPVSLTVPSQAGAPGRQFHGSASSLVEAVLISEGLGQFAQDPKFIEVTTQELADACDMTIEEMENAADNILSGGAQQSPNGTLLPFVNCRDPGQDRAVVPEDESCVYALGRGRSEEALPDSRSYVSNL
For experiment [10], the target named is Delta-type opioid receptor (Homo sapiens, UniProt P41143).
Chain of Delta-type opioid receptor (P41143 whole entry): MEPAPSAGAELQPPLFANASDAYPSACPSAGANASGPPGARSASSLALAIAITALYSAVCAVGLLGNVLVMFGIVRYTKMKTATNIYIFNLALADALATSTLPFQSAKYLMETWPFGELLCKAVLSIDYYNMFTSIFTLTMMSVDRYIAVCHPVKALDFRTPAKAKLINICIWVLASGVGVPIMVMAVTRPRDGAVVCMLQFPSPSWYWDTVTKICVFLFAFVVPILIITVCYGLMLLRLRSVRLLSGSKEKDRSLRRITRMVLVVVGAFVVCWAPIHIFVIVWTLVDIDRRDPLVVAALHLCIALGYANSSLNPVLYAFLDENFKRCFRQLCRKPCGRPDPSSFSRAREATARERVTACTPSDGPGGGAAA
In experiment [11] the target is Gamma-aminobutyric acid receptor subunit alpha-1 (Rattus norvegicus, UniProt P62813).
Chain of Gamma-aminobutyric acid receptor subunit alpha-1 (P62813 whole entry): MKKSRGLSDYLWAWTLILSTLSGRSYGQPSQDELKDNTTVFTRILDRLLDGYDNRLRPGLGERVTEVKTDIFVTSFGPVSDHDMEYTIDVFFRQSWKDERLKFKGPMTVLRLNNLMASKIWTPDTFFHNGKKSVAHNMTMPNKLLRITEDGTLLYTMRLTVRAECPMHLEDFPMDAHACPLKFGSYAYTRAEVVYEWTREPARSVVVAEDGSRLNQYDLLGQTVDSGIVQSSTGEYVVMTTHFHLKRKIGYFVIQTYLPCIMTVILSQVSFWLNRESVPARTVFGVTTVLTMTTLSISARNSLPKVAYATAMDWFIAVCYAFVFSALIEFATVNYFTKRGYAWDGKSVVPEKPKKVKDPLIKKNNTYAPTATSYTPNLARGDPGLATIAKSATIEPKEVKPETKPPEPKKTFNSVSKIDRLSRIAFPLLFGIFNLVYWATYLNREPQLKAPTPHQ
Note: assay procedure not described here.

Chain of 5-hydroxytryptamine receptor 2B (P41595 whole entry): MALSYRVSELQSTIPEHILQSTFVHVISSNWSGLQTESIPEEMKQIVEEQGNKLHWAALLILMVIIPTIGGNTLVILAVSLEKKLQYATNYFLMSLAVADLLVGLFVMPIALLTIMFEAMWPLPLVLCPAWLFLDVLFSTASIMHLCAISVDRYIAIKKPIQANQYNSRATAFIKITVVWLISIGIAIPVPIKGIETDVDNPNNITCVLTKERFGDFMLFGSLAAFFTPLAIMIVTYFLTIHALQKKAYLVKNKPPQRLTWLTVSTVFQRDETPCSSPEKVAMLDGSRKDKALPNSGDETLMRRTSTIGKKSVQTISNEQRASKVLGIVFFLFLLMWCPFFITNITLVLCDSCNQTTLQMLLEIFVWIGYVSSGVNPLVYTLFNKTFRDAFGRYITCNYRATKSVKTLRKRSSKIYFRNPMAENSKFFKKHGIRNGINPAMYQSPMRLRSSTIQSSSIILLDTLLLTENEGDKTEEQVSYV

What is called AC50 is the concentration giving half of the maximal activity seen. Take `Oc1cc(O)c(Cl)cn1`: the AC50 in experiment [1], in [2], in experiment [3], in experiment [4], in experiment [5] and in [6] was greater than 30 µM in each case. Also, the AC50 in [7], in experiment [8], in [9], in experiment [10] and in experiment [11] was greater than 30 µM throughout.
Regarding `O=c1c(O)c(-c2ccc(O)c(O)c2)oc2cc(O)cc(O)c12` [QUERCETIN], the AC50 in experiment [1] was greater than 10 µM; in [3] it was greater than 10 µM; in [4] it was greater than 30 µM; in [5] it was 10 µM; in [6], greater than 30 µM; in experiment [7], greater than 30 µM. For the same molecule, the results for the AC50 in experiment [9] and in experiment [10] were greater than 10 µM and greater than 30 µM, respectively.
For `CCOC(=O)C(C)(C)Oc1ccc(Cl)cc1` [CLOFIBRATE], the AC50 in [1] is greater than 10 µM; in [2], greater than 30 µM; in experiment [3], greater than 30 µM; in [4], greater than 10 µM; in experiment [5], greater than 10 µM; in [6] it was greater than 30 µM. Further, the AC50 was greater than 30 µM in experiment [7]; greater than 10 µM in experiment [8]; greater than 10 µM in experiment [9]; greater than 30 µM in experiment [10]; greater than 10 µM in experiment [11].
As to `CCC(=O)O[C@](Cc1ccccc1)(c1ccccc1)[C@H](C)CN(C)C` [PROPOXYPHENE], the AC50 in experiment [1] is greater than 10 µM; in [2], greater than 10 µM; in [3] it was greater than 30 µM; in experiment [4] it was greater than 10 µM; in [5] it was greater than 10 µM; in [6], greater than 30 µM. The AC50 in [7] is greater than 30 µM; in [8], greater than 10 µM; in experiment [9], greater than 10 µM; in experiment [10], 11 µM; in experiment [11], greater than 10 µM.
In the case of `CO[C@H]1C[C@H](O[C@H]2CC[C@@]3(C)[C@H](CC[C@@H]4[C@@H]3CC[C@]3(C)[C@@H](C5=CC(=O)OC5)[C@@H](OC(C)=O)C[C@]43O)C2)O[C@@H](C)[C@@H]1O` [OLEANDRIN], the concentration at half-maximal activity (AC50) in experiment [1], in experiment [3], in experiment [4], in experiment [5], in [6] and in experiment [10] was greater than 30 µM each time. The AC50 in experiment [11] was greater than 30 µM.
`C[C@]12C/C(=C/O)C(=O)C[C@@H]1CC[C@@H]1[C@@H]2CC[C@@]2(C)[C@H]1CC[C@]2(C)O` [OXYMETHOLONE]: the half-maximal activity concentration (AC50) in experiment [1], in experiment [2], in experiment [3], in [4], in experiment [5] and in experiment [6] was greater than 30 µM in each case. The AC50 in [7] was 19 µM; in experiment [8], greater than 30 µM; in experiment [10], greater than 30 µM; in [11] it was greater than 30 µM.
Regarding `Cc1cc(=O)n(-c2ccccc2)n1C` [ANTIPYRINE], the AC50 was greater than 10 µM in experiment [1]; greater than 30 µM in experiment [2]; greater than 30 µM in experiment [3]; greater than 10 µM in experiment [4]; greater than 10 µM in experiment [5]; greater than 30 µM in experiment [6]. Besides, the AC50 in experiment [7] is greater than 30 µM; in experiment [8], greater than 10 µM; in experiment [9] it was greater than 10 µM; in [10], greater than 30 µM; in [11], greater than 10 µM.
On to `O=C1Nc2ccc(Cl)cc2C(c2ccccc2Cl)=NC1O` (stereo unspecified) [LORAZEPAM], for which the AC50 in [1] is greater than 10 µM; in [2] it was greater than 10 µM; in experiment [3] it was greater than 30 µM; in [4], greater than 10 µM; in experiment [5], greater than 10 µM; in [6], greater than 30 µM. Besides, the AC50 in experiment [7] is greater than 30 µM; in [8] it was greater than 10 µM; in experiment [9], greater than 10 µM; in experiment [10] it was greater than 30 µM; in experiment [11], greater than 10 µM.
With `Cc1ccnc2c1NC(=O)c1cccnc1N2C1CC1` [NEVIRAPINE], the AC50 in experiment [1], in experiment [2], in experiment [3], in experiment [4], in experiment [5] and in [6] was greater than 10 µM each time. Further, the AC50 is greater than 30 µM in experiment [7]; greater than 10 µM in experiment [8]; greater than 10 µM in experiment [9]; greater than 10 µM in experiment [10]; greater than 10 µM in experiment [11].
Consider `Fc1ccc([C@@H]2CCNC[C@H]2COc2ccc3c(c2)OCO3)cc1` [PAROXETINE], for which the AC50 is greater than 30 µM in [3]; 19.1 µM in experiment [4]; greater than 30 µM in experiment [6]; greater than 30 µM in experiment [7]; 9.5 µM in experiment [8]; 2.5 µM in [9]. Further, the AC50 was 0.83 µM in experiment [10] and greater than 10 µM in [11].
Regarding `CC(C)NC[C@H](O)COc1ccc(CC(N)=O)cc1` [ESATENOLOL], the AC50 was greater than 10 µM in experiment [2]; greater than 10 µM in experiment [3]; greater than 10 µM in experiment [6]; greater than 30 µM in experiment [7]; greater than 10 µM in [10].
As to `CN1CCN=C(c2ccccc2)c2cc(Cl)ccc21` [MEDAZEPAM], the AC50 was greater than 30 µM in experiment [1]; greater than 30 µM in experiment [2]; 5.2 µM in [3]; greater than 30 µM in experiment [4]; greater than 30 µM in experiment [5]; 25 µM in experiment [6]. For the same molecule, the AC50 in experiment [7] was 16 µM; in [8] it was greater than 30 µM; in experiment [9] it was greater than 30 µM; in experiment [10], greater than 30 µM; in experiment [11], greater than 30 µM.
For the molecule `C[C@@H]1C[C@H]2[C@@H]3CCC4=CC(=O)C=C[C@]4(C)[C@@]3(F)[C@@H](O)C[C@]2(C)[C@@]1(O)C(=O)CO` [DEXAMETHASONE], the AC50 in experiment [1] is greater than 10 µM; in experiment [2], greater than 30 µM; in experiment [3], greater than 30 µM; in [4], greater than 10 µM; in experiment [5], greater than 10 µM; in [6], greater than 30 µM. The AC50 in experiment [7] is greater than 30 µM; in experiment [8], greater than 30 µM; in experiment [9], greater than 10 µM; in [10], greater than 30 µM; in [11] it was greater than 10 µM.
For the molecule `CCOC(=O)c1ccc(C#Cc2ccc3c(c2)C(C)(C)CCS3)nc1` [TAZAROTENE], the AC50 is greater than 10 µM in [1]; greater than 30 µM in experiment [2]; greater than 30 µM in experiment [3]; greater than 10 µM in experiment [4]; greater than 10 µM in experiment [5]; greater than 30 µM in experiment [6]. Also, the AC50 is greater than 30 µM in [7]; greater than 10 µM in experiment [8]; greater than 10 µM in experiment [9]; greater than 30 µM in experiment [10]; greater than 10 µM in [11].
For the molecule `COc1cc(N)c(Cl)cc1C(=O)NC1CCN(CCCOc2ccc(F)cc2)CC1OC` (stereo unspecified) [CISAPRIDE], the AC50 in experiment [1] was greater than 10 µM; in experiment [2] it was greater than 30 µM; in experiment [3], greater than 30 µM; in experiment [5] it was greater than 10 µM; in experiment [7], greater than 30 µM; in [8], greater than 10 µM. Also, the AC50 in experiment [9], in [10] and in experiment [11] was greater than 10 µM in each case.
